Counter-ions that a name gives are not always drawn.

For the test, the system named is Thoracic aorta. Kind of test: Vasodilative activity in isolated Wistar rat thoracic aorta assessed as inhibition of norepinephrine hydrochloride-induced contraction. Type of test: functional, tissue-based.
On to `CCn1cc(-c2cc(-c3cc4ccccc4o3)nc(OC)c2C#N)c2ccccc21`, for which the IC50 stood at 299 µM. In the case of `COc1nc(-c2cc3ccccc3o2)cc(-c2cccc3ccccc23)c1C#N` it was 359 µM. For the compound `CCOc1nc(-c2cc3ccccc3o2)cc(-c2cc(OC)ccc2OC)c1C#N`, the IC50 turned out to be 327 µM. With `CCOc1nc(-c2cc3ccccc3o2)cc(-c2ccc(C)o2)c1C#N`, the IC50 was 417 µM. The figure for `CCOc1nc(-c2cc3ccccc3o2)cc(-c2ccc(C)cc2)c1C#N` is 290 µM. Turning to `CCOc1nc(-c2cc3ccccc3o2)cc(-c2ccc(OC)cc2)c1C#N`, the IC50 came out at 204 µM.

As for `COc1nc(-c2cc3ccccc3o2)cc(-c2ccc3ccccc3c2)c1C#N`, the IC50 is 320 µM. With `CCOc1nc(-c2cc3ccccc3o2)cc(-c2ccc(Br)cc2)c1C#N`, the IC50 is 227 µM. The figure for `COc1ccc(-c2cc(-c3cc4ccccc4o3)nc(OC)c2C#N)c(OC)c1` is 425 µM; for `COc1nc(-c2cc3ccccc3o2)cc(-c2cn(C)c3ccccc23)c1C#N` it is 262 µM. The figure for `COc1nc(-c2cc3ccccc3o2)cc(-c2ccc(C)o2)c1C#N` is 285 µM. The figure for `COc1nc(-c2cc3ccccc3o2)cc(-c2ccc(Cl)cc2)c1C#N` is 286 µM; for `COc1nc(-c2cc3ccccc3o2)cc(-c2cccs2)c1C#N` it is 163 µM; for `CCOc1nc(-c2cc3ccccc3o2)cc(-c2cccs2)c1C#N` it is 308 µM. With `CCOc1nc(-c2cc3ccccc3o2)cc(-c2ccccc2)c1C#N`, the IC50 worked out at 310 µM. For the compound `CCOc1nc(-c2cc3ccccc3o2)cc(-c2ccc(N(C)C)cc2)c1C#N`, the IC50 came out at 338 µM. On to `COc1ccc(-c2cc(-c3cc4ccccc4o3)nc(OC)c2C#N)cc1`, for which the IC50 was 262 µM.

For the compound `COc1nc(-c2cc3ccccc3o2)cc(-c2ccc(F)cc2)c1C#N`, the IC50 came to 321 µM. In the case of `CCOc1nc(-c2cc3ccccc3o2)cc(-c2cc(OC)c(OC)c(OC)c2)c1C#N` it was 365 µM; in that of `CCOc1nc(-c2cc3ccccc3o2)cc(-c2ccc(Cl)cc2)c1C#N`, 221 µM. The figure for `COc1nc(-c2cc3ccccc3o2)cc(-c2ccc(C)cc2)c1C#N` is 266 µM; for `COc1ccc(OC)c(-c2cc(-c3cc4ccccc4o3)nc(OC)c2C#N)c1` it is 246 µM; for `COc1nc(-c2cc3ccccc3o2)cc(-c2ccc(N(C)C)cc2)c1C#N` it is 278 µM. In the case of `COc1nc(-c2cc3ccccc3o2)cc(-c2ccc(Cl)cc2Cl)c1C#N`, the IC50 was 322 µM. The figure for `CCOc1nc(-c2cc3ccccc3o2)cc(-c2cccc3ccccc23)c1C#N` is 344 µM; for `COc1cc(-c2cc(-c3cc4ccccc4o3)nc(OC)c2C#N)cc(OC)c1OC` it is 310 µM; for `COc1nc(-c2cc3ccccc3o2)cc(-c2ccc(Br)cc2)c1C#N` it is 298 µM.

Turning to `CCOc1nc(-c2cc3ccccc3o2)cc(-c2cn(C)c3ccccc23)c1C#N`, the IC50 amounted to 327 µM. The figure for `CCOc1nc(-c2cc3ccccc3o2)cc(-c2cn(CC)c3ccccc23)c1C#N` is 358 µM; for `COc1nc(-c2cc3ccccc3o2)cc(-c2ccccc2)c1C#N` it is 232 µM. In the case of `CCOc1nc(-c2cc3ccccc3o2)cc(-c2ccc(Cl)cc2Cl)c1C#N` it was 442 µM. In the case of `CCOc1nc(-c2cc3ccccc3o2)cc(-c2ccc(OC)cc2OC)c1C#N` it was 488 µM; in that of `CCOc1nc(-c2cc3ccccc3o2)cc(-c2ccc3ccccc3c2)c1C#N`, 423 µM; in that of `CCOc1nc(-c2cc3ccccc3o2)cc(-c2ccc(F)cc2)c1C#N`, 396 µM. Take `CCCCc1oc2ccccc2c1C(=O)c1cc(I)c(OCCN(CC)CC)c(I)c1` [AMIODARONE HYDROCHLORIDE]: the IC50 worked out at 312 µM.

For orientation: IC50 means the concentration that inhibits the measured activity by half.

These data come from ChEMBL document CHEMBL3792313, “Rational design, synthesis and 2D-QSAR study of novel vasorelaxant active benzofuran-pyridine hybrids” (Bioorg Med Chem Lett, 2016).
